Data on seven cell lines can be found in the supplement of paper PMC10307832.

Test in all cases: relative viability (nuclei count vs DMSO), 5 days (fraction); higher = more cells survive
Compound in the assay “BI-D1870 + Luminespib”: CC(C)CCN1c2nc(Nc3cc(F)c(O)c(F)c3)ncc2N(C)C(=O)C1C [BI-D1870] + CCNC(=O)c1noc(-c2cc(C(C)C)c(O)cc2O)c1-c1ccc(CN2CCOCC2)cc1 [Luminespib] (partner 0.01 µM)
Summed up:
(§1)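 After 5 days of treatment, lung cancer cells in 1536-well plates were fixed and stained in a single step (final 0.05% Triton X-100, 1% formaldehyde, 1 ug/ml Hoechst) and their nuclei counted on 4× images. Treatment had been applied by pin tool the day after seeding as one drug alone or as a fixed anchor-drug dose with five library-drug doses (not always all listed) in √10 steps. Relative viability is the nuclei count of treated wells divided by that of vehicle wells, and values are medians of duplicate plates.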

Compound in the assay “BI-D1870 + Crizotinib”: CC(C)CCN1c2nc(Nc3cc(F)c(O)c(F)c3)ncc2N(C)C(=O)C1C [BI-D1870] + C[C@@H](Oc1cc(-c2cnn(C3CCNCC3)c2)cnc1N)c1c(Cl)ccc(F)c1Cl [Crizotinib] (partner 1 µM)
Summed up: as §1

Compound in the assay “BI-D1870 + Pemetrexed”: CC(C)CCN1c2nc(Nc3cc(F)c(O)c(F)c3)ncc2N(C)C(=O)C1C [BI-D1870] + Nc1nc2[nH]cc(CCc3ccc(C(=O)N[C@@H](CCC(=O)O)C(=O)O)cc3)c2c(=O)[nH]1 [Pemetrexed] (partner 0.2 µM)
Summed up: as §1

Compound in the assay “Zebularine + OSI-027”: O=c1ncccn1[C@@H]1O[C@H](CO)[C@@H](O)[C@H]1O [Zebularine] + COc1cccc2cc(-c3nc([C@H]4CC[C@H](C(=O)O)CC4)n4ncnc(N)c34)[nH]c12 [OSI-027] (partner 0.5 µM)
Summed up: as §1

In the case of PC-3 [JPC-3], the relative viability with BI-D1870 + Luminespib (first compound 0.04 µM) was found to be 0.783; in the assay with BI-D1870 + Luminespib (first compound 0.1265 µM), 0.645; with BI-D1870 + Luminespib (first compound 0.4 µM), 0.717; in the assay with BI-D1870 + Luminespib (first compound 1.265 µM), 0.825; in the assay with BI-D1870 + Luminespib (first compound 4 µM) it was 0.677; with BI-D1870 + Crizotinib (first compound 0.04 µM), 1.01. The relative viability in the assay with BI-D1870 + Crizotinib (first compound 0.1265 µM) stood at 0.898; with BI-D1870 + Crizotinib (first compound 0.4 µM) it was 1.05; in the assay with BI-D1870 + Crizotinib (first compound 1.265 µM), 1.05; in the assay with BI-D1870 + Crizotinib (first compound 4 µM), 0.97; with BI-D1870 + Pemetrexed (first compound 0.04 µM) it was 1.1; in the assay with BI-D1870 + Pemetrexed (first compound 0.1265 µM), 1.1. Also, the relative viability with BI-D1870 + Pemetrexed (first compound 0.4 µM) amounted to 1.01; in the assay with BI-D1870 + Pemetrexed (first compound 1.265 µM) it was 0.806; with BI-D1870 + Pemetrexed (first compound 4 µM), 0.479; with Zebularine + OSI-027 (first compound 1 µM), 0.832; in the assay with Zebularine + OSI-027 (first compound 3.162 µM), 0.701; in the assay with Zebularine + OSI-027 (first compound 10 µM), 0.554. Further, the relative viability is 0.663 with Zebularine + OSI-027 (first compound 31.62 µM) and 0.656 with Zebularine + OSI-027 (first compound 100 µM).

For the cell line PC-14, the relative viability with BI-D1870 + Luminespib (first compound 0.04 µM) worked out at 0.237; with BI-D1870 + Luminespib (first compound 0.1265 µM) it was 0.279; in the assay with BI-D1870 + Luminespib (first compound 0.4 µM), 0.126; in the assay with BI-D1870 + Luminespib (first compound 1.265 µM), 0.233; with BI-D1870 + Luminespib (first compound 4 µM) it was 0.119; with BI-D1870 + Crizotinib (first compound 0.04 µM), 1.03. Besides, the relative viability with BI-D1870 + Crizotinib (first compound 0.1265 µM) worked out at 0.909; with BI-D1870 + Crizotinib (first compound 0.4 µM) it was 0.797; with BI-D1870 + Crizotinib (first compound 1.265 µM), 0.923; with BI-D1870 + Crizotinib (first compound 4 µM) it was 0.768; in the assay with BI-D1870 + Pemetrexed (first compound 0.04 µM), 0.124; in the assay with BI-D1870 + Pemetrexed (first compound 0.1265 µM), 0.129. For the same cell line, the relative viability was determined as 0.141 with BI-D1870 + Pemetrexed (first compound 0.4 µM); 0.133 with BI-D1870 + Pemetrexed (first compound 1.265 µM); 0.124 with BI-D1870 + Pemetrexed (first compound 4 µM); 0.778 with Zebularine + OSI-027 (first compound 1 µM); 0.437 with Zebularine + OSI-027 (first compound 3.162 µM); 0.146 in the assay with Zebularine + OSI-027 (first compound 10 µM). The relative viability in the assay with Zebularine + OSI-027 (first compound 31.62 µM) worked out at 0.121; with Zebularine + OSI-027 (first compound 100 µM), 0.0877.

For RERF-LC-KJ, the relative viability with BI-D1870 + Luminespib (first compound 0.04 µM) was 1.42; with BI-D1870 + Luminespib (first compound 0.1265 µM) it was 1.16; in the assay with BI-D1870 + Luminespib (first compound 0.4 µM) it was 1.22; with BI-D1870 + Luminespib (first compound 1.265 µM) it was 1.3; with BI-D1870 + Luminespib (first compound 4 µM) it was 0.552; with BI-D1870 + Crizotinib (first compound 0.04 µM), 0.892. The relative viability came out at 0.853 in the assay with BI-D1870 + Crizotinib (first compound 0.1265 µM); 0.847 with BI-D1870 + Crizotinib (first compound 0.4 µM); 0.857 with BI-D1870 + Crizotinib (first compound 1.265 µM); 0.792 in the assay with BI-D1870 + Crizotinib (first compound 4 µM); 0.453 in the assay with BI-D1870 + Pemetrexed (first compound 0.04 µM); 0.447 in the assay with BI-D1870 + Pemetrexed (first compound 0.1265 µM). The relative viability is 0.476 in the assay with BI-D1870 + Pemetrexed (first compound 0.4 µM); 0.527 with BI-D1870 + Pemetrexed (first compound 1.265 µM); 0.413 with BI-D1870 + Pemetrexed (first compound 4 µM); 0.715 with Zebularine + OSI-027 (first compound 1 µM); 0.523 with Zebularine + OSI-027 (first compound 3.162 µM); 0.51 with Zebularine + OSI-027 (first compound 10 µM). Moreover, the relative viability with Zebularine + OSI-027 (first compound 31.62 µM) was found to be 0.548; with Zebularine + OSI-027 (first compound 100 µM), 0.575.

On to SK-LU-1, for which the relative viability with BI-D1870 + Luminespib (first compound 0.04 µM) stood at 0.178; with BI-D1870 + Luminespib (first compound 0.1265 µM) it was 0.17; with BI-D1870 + Luminespib (first compound 0.4 µM), 0.207; with BI-D1870 + Luminespib (first compound 1.265 µM) it was 0.224; with BI-D1870 + Luminespib (first compound 4 µM) it was 0.179; with BI-D1870 + Crizotinib (first compound 0.04 µM), 1.14. In addition, the relative viability in the assay with BI-D1870 + Crizotinib (first compound 0.1265 µM) is 0.81; with BI-D1870 + Crizotinib (first compound 0.4 µM), 0.88; with BI-D1870 + Crizotinib (first compound 1.265 µM), 0.859; with BI-D1870 + Crizotinib (first compound 4 µM), 0.315; with BI-D1870 + Pemetrexed (first compound 0.04 µM) it was 1.1; with BI-D1870 + Pemetrexed (first compound 0.1265 µM), 0.918. Moreover, the relative viability is 1.01 with BI-D1870 + Pemetrexed (first compound 0.4 µM); 0.868 in the assay with BI-D1870 + Pemetrexed (first compound 1.265 µM); 0.366 in the assay with BI-D1870 + Pemetrexed (first compound 4 µM); 0.369 in the assay with Zebularine + OSI-027 (first compound 1 µM); 0.359 with Zebularine + OSI-027 (first compound 3.162 µM); 0.31 in the assay with Zebularine + OSI-027 (first compound 10 µM). The relative viability in the assay with Zebularine + OSI-027 (first compound 31.62 µM) worked out at 0.291; with Zebularine + OSI-027 (first compound 100 µM), 0.302.

Consider SK-MES-1, for which the relative viability with BI-D1870 + Luminespib (first compound 0.04 µM) was 0.904; in the assay with BI-D1870 + Luminespib (first compound 0.1265 µM) it was 0.649; in the assay with BI-D1870 + Luminespib (first compound 0.4 µM), 0.66; with BI-D1870 + Luminespib (first compound 1.265 µM), 0.535; with BI-D1870 + Luminespib (first compound 4 µM) it was 0.251; with BI-D1870 + Crizotinib (first compound 0.04 µM), 1.09. Further, the relative viability with BI-D1870 + Crizotinib (first compound 0.1265 µM) came to 0.88; with BI-D1870 + Crizotinib (first compound 0.4 µM), 0.864; in the assay with BI-D1870 + Crizotinib (first compound 1.265 µM) it was 0.78; with BI-D1870 + Crizotinib (first compound 4 µM) it was 0.569; in the assay with BI-D1870 + Pemetrexed (first compound 0.04 µM) it was 0.992; with BI-D1870 + Pemetrexed (first compound 0.1265 µM) it was 0.874. Further, the relative viability in the assay with BI-D1870 + Pemetrexed (first compound 0.4 µM) stood at 0.895; with BI-D1870 + Pemetrexed (first compound 1.265 µM), 0.716; with BI-D1870 + Pemetrexed (first compound 4 µM), 0.622; with Zebularine + OSI-027 (first compound 1 µM), 0.707; with Zebularine + OSI-027 (first compound 3.162 µM), 0.606; in the assay with Zebularine + OSI-027 (first compound 10 µM), 0.454. For the same cell line, the relative viability with Zebularine + OSI-027 (first compound 31.62 µM) was 0.514; with Zebularine + OSI-027 (first compound 100 µM), 0.288.

Take SW 1573: the relative viability with BI-D1870 + Luminespib (first compound 0.04 µM) came out at 0.219; with BI-D1870 + Luminespib (first compound 0.1265 µM), 0.172; with BI-D1870 + Luminespib (first compound 0.4 µM) it was 0.297; in the assay with BI-D1870 + Luminespib (first compound 1.265 µM), 0.191; with BI-D1870 + Luminespib (first compound 4 µM) it was 0.143; with BI-D1870 + Crizotinib (first compound 0.04 µM) it was 1.01. In addition, the relative viability was found to be 0.808 with BI-D1870 + Crizotinib (first compound 0.1265 µM); 0.876 with BI-D1870 + Crizotinib (first compound 0.4 µM); 0.905 in the assay with BI-D1870 + Crizotinib (first compound 1.265 µM); 0.597 with BI-D1870 + Crizotinib (first compound 4 µM); 0.855 in the assay with BI-D1870 + Pemetrexed (first compound 0.04 µM); 0.775 in the assay with BI-D1870 + Pemetrexed (first compound 0.1265 µM). Besides, the relative viability was 0.826 with BI-D1870 + Pemetrexed (first compound 0.4 µM); 0.845 with BI-D1870 + Pemetrexed (first compound 1.265 µM); 0.35 in the assay with BI-D1870 + Pemetrexed (first compound 4 µM); 0.603 with Zebularine + OSI-027 (first compound 1 µM); 0.606 with Zebularine + OSI-027 (first compound 3.162 µM); 0.506 with Zebularine + OSI-027 (first compound 31.62 µM). Moreover, the relative viability in the assay with Zebularine + OSI-027 (first compound 100 µM) came to 0.443.

Regarding UMC-11, the relative viability with BI-D1870 + Luminespib (first compound 0.04 µM) stood at 1.06; in the assay with BI-D1870 + Luminespib (first compound 0.1265 µM) it was 1.05; with BI-D1870 + Luminespib (first compound 0.4 µM), 0.939; with BI-D1870 + Luminespib (first compound 1.265 µM), 1.08; with BI-D1870 + Luminespib (first compound 4 µM) it was 0.206; with BI-D1870 + Crizotinib (first compound 0.04 µM), 0.477. Further, the relative viability with BI-D1870 + Crizotinib (first compound 0.1265 µM) came to 0.585; with BI-D1870 + Crizotinib (first compound 0.4 µM), 0.533; in the assay with BI-D1870 + Crizotinib (first compound 1.265 µM) it was 0.694; with BI-D1870 + Crizotinib (first compound 4 µM), 0.172; in the assay with BI-D1870 + Pemetrexed (first compound 0.04 µM), 0.812; with BI-D1870 + Pemetrexed (first compound 0.1265 µM), 0.751. Besides, the relative viability in the assay with BI-D1870 + Pemetrexed (first compound 0.4 µM) amounted to 0.777; with BI-D1870 + Pemetrexed (first compound 1.265 µM), 0.779; in the assay with BI-D1870 + Pemetrexed (first compound 4 µM), 0.277; with Zebularine + OSI-027 (first compound 1 µM), 0.544; with Zebularine + OSI-027 (first compound 3.162 µM), 0.478; with Zebularine + OSI-027 (first compound 10 µM) it was 0.297. The relative viability worked out at 0.473 with Zebularine + OSI-027 (first compound 31.62 µM) and 0.407 with Zebularine + OSI-027 (first compound 100 µM).
